In patent publication US20030008807A1, “Novel signaling pathway for the production of inflammatory pain and neuropathy” (The Regents of the University of California, priority 2001, published 2003):
Entries after “also recorded” stand apart in the source; their conditions may differ.

Assays:
[1] = test system: mechanical nociceptive threshold; test: PGE2-induced hyperalgesia, Randall-Selitto paw-withdrawal test (Example 1); assay type: in vivo, rat; settings: intradermal, inhibitor 1 μg plus PGE2 100 ng, male rats
Description: (§1) The nociceptive flexion reflex (Randall-Selitto paw-withdrawal test) was quantified with a Basile Analge-symeter (Stoelting, Chicago, Ill.), which applies a linearly increasing mechanical force to the dorsum of the rat's hindpaw. The mechanical nociceptive threshold was defined as the force in grams at which the rat withdrew its paw. On the day of the test, animals were brought to the laboratory and allowed to remain in the cage for 10-15 min. They were allowed to crawl into individual cylindrical Perspex blocks and were lightly restrained there by closing both ends of the cylinder. […] Three readings were taken at 5 min intervals, and their mean was considered the baseline threshold. After each drug administration, mechanical paw-withdrawal thresholds were determined again as the mean of three readings taken 20, 25, and 30 min after injection. The result was expressed as the percentage decrease in nociceptive threshold [(paw-withdrawal threshold after the drug-basal paw withdrawal threshold)/basal withdrawal threshold×100].
(§2) Stock solutions (1 μg/μl) of BIM (in 10% dimethylsulfoxide) and εV1-2 and WI PTI DE (in 0.9% saline) were stored at […]. […] Paw-withdrawal thresholds were measured again 10, 15, and 20 min after injecting the test agent. […] The effect of each dose a test agent was calculated as the percentage change from baseline.

[2] = test system: mechanical nociceptive threshold; test: Epinephrine-induced hyperalgesia in gonad-intact and gonadectomized male and female rats (Example 2); settings: inhibitor 1 μg, epinephrine 100 ng intradermal
Description: The nociceptive flexion reflex was quantified using the Randall-Selitto paw pressure device (Analgesymeter, Stoetling, Chicago, Ill., USA), which applies a linearly increasing mechanical force to the dorsum of the rat's hind paw. The mechanical nociceptive threshold was defined as the force in grams at which the rat withdrew its paw. […] Baseline paw-withdrawal threshold was defined as the mean of six readings before test agents were injected. […] Each group of rats was treated with only one agonist and/or antagonist injected peripherally by the intradermal route. […] All behavioural testing was done between 10.00 and 16.00 h. […] The protein kinase inhibitor was separated from the distilled water by drawing up a small air bubble (<1 μL) into the syringe after drawing up the protein kinase inhibitor but before drawing up the distilled water.
A stock solution of PGE2 (4 mg/mL) was made by dissolving it in 10% ethanol in normal saline; further dilution to 100 ng was made by addition of saline. Final concentration of ethanol was <10%. […] Stock solutions (1 μg/μL) of inhibitors were stored at −20° C. […] Inhibitors were injected at a concentration of 1 μg/2.5 μL.

[3] = test system: mechanical nociceptive threshold; test: ψεRACK (PKCε activator)-induced hyperalgesia, Randall-Selitto paw-withdrawal test; assay type: in vivo, rat; settings: intradermal, inhibitor 1 μg plus ψεRACK 1 μg, male rats
Description: as §1, §2

[4] = test system: alcohol-induced hyperalgesia; test: Alcohol-induced painful peripheral neuropathy, Randall-Selitto paw-withdrawal test; assay type: in vivo, rat
Excerpt: (§3) The role of Ras-MEK-ERK 1/2 cascade in painful peripheral neuropathy has been evaluated in three rodent models of common clinical conditions in which patients experience painful peripheral neuropathy. The three models are as follows: 1) Taxol® (a major cancer chemotherapy agent)-induced painful peripheral neuropathy (Dina, O. A., et al., (2001) Role of protein kinase C-epsilon and protein kinase A in a model of paclitaxel-induced painful peripheral neuropathy in the rat. Neuroscience 108:507-515); 2) vincristine (another cancer chemotherapy agent)-induced painful peripheral neuropathy (Aley, K. O., et al., (1996) Vincristine hyperalgesia in the rat: a possible modelfor painful vincristine neuropathy in humans. Neuroscience 73:259-265; Tanner, K. D., et al., (1998) Nociceptor hyper-responsiveness during vincristine-induced painful peripheral neuropathy in the rat. J. Neuroscience 18:6480-6491; Tanner, K. D., et al., (1998) Microtubule disorientation and axonal swelling in unmyelinated sensory axons during vincristine-induced painful neuropathy in rat. J. Comp. Neurol., 395:481-492; and, Tanner, K. D., et al., (2002) Altered temporal patterning of afferent activity in a rat model of vincristine-induced peripheral neuropathy (Submitted -Neuroscience).); and, 3) alcohol-induced painful peripheral neuropathy (Dina, O. A., et al., (2000) Key role for the epsilon isoform of protein kinase C in painful alcoholic neuropathy in the rat. J. Neurosci. 20:8614-8619). In all three models, inhibition of MEK by a MEK inhibitor, PD98509, produced either a moderate (Taxol and vincristine) or profound (alcohol) reversal of the painful peripheral neuropathy. In the third model, alcohol-induced painful peripheral neuropathy, a second inhibitor of the Ras-MEK-ERK 1/2 cascade, which was MEK inhibitor U0126, was also employed.
The pain threshold in normal rats was approximately 110 grams, using the Randall-Selitto paw-withdrawal threshold test (plotted as percentage change in nociceptive threshold). Following chronic consumption of a diet in which alcohol replaced calories, but not other nutrients, in the normal diet, the threshold fell to approximately 70 grams. […] See FIG. 13A, which illustrates results from female rats and FIG. 13B, which illustrates results from male rats.

[5] = test system: mechanical nociceptive threshold; test: Epinephrine-induced mechanical hyperalgesia, Randall-Selitto paw-withdrawal test (Example 1)
Description: (§4) The nociceptive flexion reflex (Randall-Selitto paw-withdrawal test) was quantified with a Basile Analge-symeter (Stoelting, Chicago, Ill.), which applies a linearly increasing mechanical force to the dorsum of the rat's hindpaw. The mechanical nociceptive threshold was defined as the force in grams at which the rat withdrew its paw. […] They were allowed to crawl into individual cylindrical Perspex blocks and were lightly restrained there by closing both ends of the cylinder. […] The rats were allowed to acclimatize to the restrainer for 5-10 min, after which the hindpaws were exposed to the test stimulus. Three readings were taken at 5 min intervals, and their mean was considered the baseline threshold. After each drug administration, mechanical paw-withdrawal thresholds were determined again as the mean of three readings taken 20, 25, and 30 min after injection.
Inhibitors were diluted with distilled water before intra-dermal injections into the paw using a 10 μl microsyringe (Hamilton, Reno, Nev.). Injections of peptides (1 μg/2.5 μl) were always preceded by injection of distilled water (2.5 μl) to produce hypo-osmotic shock. […] Paw-withdrawal thresholds were measured again 10, 15, and 20 min after injecting the test agent. The mean of the paw-withdrawal thresholds obtained at these three times was then taken as the mechanical nociceptive threshold at the dose of the test agent used. The effect of each dose a test agent was calculated as the percentage change from baseline.

ERK1/2 = test: Epinephrine-stimulated ERK1/2 phosphorylation in cultured rat DRG neurons (Western analysis); assay type: cell-based
Description: Trypsin was inactivated by adding 100 μg/ml soybean trypsin inhibitor and 2.5 mg/ml MgSO4. The cells were centrifuged at 300×g for 5 min and resuspended culture media containing minimal essential medium (MEM) supplemented with 10% heat-inactivated fetal calf serum, 1×MEM vitamins, and 1000 U/ml each of penicillin and streptomycin. The culture was enriched for neurons by preplating on 100 mm culture dishes pretreated with 0.1 mg/ml poly-DL-ornithine in 15 mM sodium borate buffer. After culture for 15-20 hr, the loosely attached neuronal cells were collected and plated for 3 hr on six-well plates coated with 0.1 mg/ml poly-DL-ornithine and 1 mg/ml laminin.
After drug treatment, cells from neuron-enriched DRG cultures were collected and centrifuged at 300×g for 5 min at 4° C. […] Blots were incubated with anti-phospho-p42/44 MAP kinase antibody (diluted 1:500 in blocking buffer) overnight at 4° C. Blots were rinsed three times in PBS-T and incubated in blocking buffer containing HRP-conjugated goat anti-rabbit IgG (diluted 1:1000; Boehringer Mannheim, Indianapolis, Ind.) for 1 hr at 27° C. Immunoreactive bands were visualized by enhanced chemiluminescence (Amersham Pharmacia Biotech, Piscataway, N.J.). The membranes were then stripped of antibodies by incubation in 200 mM NaOH for 20 min at 27° C. […] After three washes in PBS-T, blots were incubated with HRP-conjugated goat anti-rabbit IgG (diluted 1:1000; Boehringer Mannheim) for 1 hr at 27° C., and immunoreactive bands were visualized by enhanced chemiluminescence and autoradiography. […] Data were normalized by dividing values obtained for phospho-ERK1 and phospho-ERK2 immunoreactivity by the value obtained for total ERK1 immunoreactivity for each sample.

[6] = test system: mechanical nociceptive threshold; test: Prostaglandin E2-induced hyperalgesia in male and female rats (Example 2); assay type: in vivo, rat; settings: both sexes, gonad-intact; inhibitor 1 μg, PGE2 100 ng intradermal
Excerpt: The nociceptive flexion reflex was quantified using the Randall-Selitto paw pressure device (Analgesymeter, Stoetling, Chicago, Ill., USA), which applies a linearly increasing mechanical force to the dorsum of the rat's hind paw. The mechanical nociceptive threshold was defined as the force in grams at which the rat withdrew its paw. The protocols for this procedure have been previously described (Taiwo et al., (1989) The contribution of training to sensitivity in the nociceptive paw-withdrawal test. Brain Res., 487:148-151). Rats were familiarized in the testing procedure, at 5-min intervals for a period of 1 h per day for 3 days in the week preceding the experiment, to decrease variance in nociceptive thresholds (Taiwo et al., (1989), supra). Baseline paw-withdrawal threshold was defined as the mean of six readings before test agents were injected. Each paw was treated as an independent measure (Taiwo et al., (1989), supra) and each experiment was performed on a separate group of rats. Each group of rats was treated with only one agonist and/or antagonist injected peripherally by the intradermal route. It has been shown in previous studies that these agents, which are injected using the protocol described, exert a peripheral rather than central action (Khasar et al., (1995), supra; and, Khasar et al., (1999b), supra). The dose-response relationship for the effect of epinephrine was determined over a dose range of 1 ng-1 μg. All behavioural testing was done between 10.00 and 16.00 h. The blocking agents, with and without epinephrine (Khasar et al., (1999b), supra) or prostaglandin E2 (PGE2) (Aley et al., (1998), supra; Aley & Levine, (1999), supra; and, Aley et al., (2000) Chronic hypersensitivity for inflammatory nociceptor sensitization mediated by the epsilon isozyme of protein kinase C. J. Neurosci., 20:4680-4685), were injected as described previously (Khasar et al., (1995), supra; and, Khasar et al., (1999b), supra). […]

[7] = test system: mechanical nociceptive threshold; test: Active MEK-induced hyperalgesia, Randall-Selitto paw-withdrawal test; settings: intradermal, inhibitor 1 μg plus active MEK 0.5 U, male rats
Description: as §4
Inhibitors were diluted with distilled water before intra-dermal injections into the paw using a 10 μl microsyringe (Hamilton, Reno, Nev.). Injections of peptides (1 μg/2.5 μl) were always preceded by injection of distilled water (2.5 μl) to produce hypo-osmotic shock. […] Paw-withdrawal thresholds were measured again 10, 15, and 20 min after injecting the test agent. […] The effect of each dose a test agent was calculated as the percentage change from baseline.

[8] = test system: Taxol-induced hyperalgesia; test: Taxol-induced painful peripheral neuropathy, Randall-Selitto paw-withdrawal test; assay type: in vivo, rat; settings: male and female rats, administered at site of nociceptive testing on paw
Excerpt: as §3
The pain threshold in normal male and female rats was approximately 110 grams, using the Randall-Selitto paw-withdrawal test (plotted as absolute change in nociceptive threshold). Following administration of Taxol, the threshold fell to approximately 70 grams.

[9] = test system: vincristine-induced hyperalgesia; test: Vincristine-induced painful peripheral neuropathy, Randall-Selitto paw-withdrawal test; assay type: in vivo, rat; settings: male and female rats, administered at site of nociceptive testing on paw
Excerpt: as §3
The pain threshold in normal male and female rats was approximately 110 grams, using the Randall-Selitto paw-withdrawal test (plotted as absolute change in nociceptive threshold). Following administration of vincristine, the threshold fell to approximately 65 grams.

[10] = male and female rats, administered at site of nociceptive testing on paw

N#CC(=C(/N)Sc1ccccc1N)/C(C#N)=C(\N)Sc1ccccc1N [U0126]
effect on hyperalgesia induced by PGE2 [1]: had no effect | effect on epinephrine-induced hyperalgesia ([2]; intact female rats): attenuated | effect on hyperalgesia induced by ψεRACK [3]: had no effect | effect on alcohol-induced hyperalgesia ([4]; female rats (FIG. 13A)): almost completely reversed | effect on alcohol-induced hyperalgesia [4, 10]: almost complete reversal | effect on alcohol-induced hyperalgesia ([4]; male rats (FIG. 13B)): almost completely reversed | effect on epinephrine-induced mechanical hyperalgesia ([5]; rat, in vivo): inhibited | effect on epinephrine-induced ERK phosphorylation (ERK1/2): inhibited

WIPTIDE
effect on epinephrine-induced hyperalgesia ([2]; gonadectomized female rats): inhibition | effect on epinephrine-induced hyperalgesia ([2]; intact female rats): neither inhibited | effect on epinephrine-induced hyperalgesia ([2]; intact male rats): antagonized | effect on prostaglandin E2-induced hyperalgesia [6]: significantly blocked; also recorded: inhibited to a similar degree | effect on hyperalgesia induced by active MEK [7]: did not reduce

COc1cccc(-c2cc(=O)c3ccccc3o2)c1N [PD98059]
effect on hyperalgesia induced by PGE2 [1]: had no effect | effect on epinephrine-induced hyperalgesia ([2]; intact female rats): attenuated | effect on hyperalgesia induced by ψεRACK [3]: had no effect | effect on Taxol-induced hyperalgesia [8]: two-thirds reduction; also recorded: significantly reversed | effect on Taxol-induced hyperalgesia ([8]; listed as PD98509): moderate | effect on alcohol-induced hyperalgesia ([4]; female rats (FIG. 13A)): almost completely reversed | effect on alcohol-induced hyperalgesia [4, 10]: almost complete reversal | effect on alcohol-induced hyperalgesia ([4]; male and female rats, administered at site of nociceptive testing on paw, listed as PD98509): profound | effect on alcohol-induced hyperalgesia ([4]; male rats (FIG. 13B)): almost completely reversed | effect on epinephrine-induced mechanical hyperalgesia ([5]; intradermal, inhibitor 1 μg plus epinephrine 100 ng, male rats): inhibited | effect on vincristine-induced hyperalgesia [9]: more than two-thirds reduction; also recorded: reversed | effect on vincristine-induced hyperalgesia ([9]; listed as PD98509): moderate | effect on vincristine-induced hyperalgesia ([9]; listed as PD980598): significantly reversed
